Results as given in the Biogen ADME set (Fang et al. 2023).
In brackets after ≈: the same amount, converted by molar mass.

Details: for aqueous solubility: pH 6.8

Structure (SMILES) | intrinsic clearance, human liver microsomes [mL/min/kg] | intrinsic clearance, rat liver microsomes [mL/min/kg] | aqueous solubility [µg/mL] | MDR1-MDCK efflux ratio | fraction unbound, human plasma | fraction unbound, rat plasma
NC(=O)C1(CCCc2ccccn2)CCNCC1 | ≤ 4.74 | 84.3 | 38.7 (≈ 156 µM) | – | – | –
C=CC(=O)N1CCC[C@H](n2c(=O)n(-c3ccc(Oc4ccccc4)cc3)c3c(N)ncnc32)C1 | 166 | 516 | 56.4 (≈ 123 µM) | 5.79 | 0.0963 | 0.0189
Clc1cnc(NCC2(c3ccncc3)CC2)nc1 | 26 | 472 | – | – | – | –
COc1ccccc1N1CCN(c2nc(-c3ccc(C)cc3)cc(=O)[nH]2)CC1 | – | – | 0.2 (≈ 0.531 µM) | 1.75 | – | –
COc1cc(C)nc(N2CCN(c3ccc4ccccc4n3)CC2)n1 | 36.2 | 643 | – | – | – | –
O=C(Nc1ccc(Cl)cc1)C(=O)N(C1CCCC1)C1CC1 | – | – | 29.4 (≈ 95.8 µM) | – | – | –
Nc1nnc(-c2ccc3c(c2)OCCO3)o1 | ≤ 4.74 | 61.4 | 23.4 (≈ 107 µM) | 0.657 | – | –
CC(C)(C)C(=O)N1CCC(CN2C(=O)C(=O)N(C3CCCC3)C2=O)CC1 | 22.1 | 288 | 66.8 (≈ 184 µM) | 2.03 | – | –
O=C(Nc1ccc2c(c1)N(CC(F)F)C(=O)CS2)C1CC=CC1 | 52.6 | 391 | – | 0.742 | – | –
C#CCN1CCN(C(=O)CCS(C)(=O)=O)CC1 | ≤ 4.74 | ≤ 10.7 | 73.8 (≈ 285 µM) | – | – | –
N#CCCCN1CCN(c2cc(C#N)ccn2)CC1 | ≤ 4.74 | 180 | 41.2 (≈ 162 µM) | 0.56 | – | –

Further lines, results first:

intrinsic clearance, human liver microsomes [mL/min/kg] | intrinsic clearance, rat liver microsomes [mL/min/kg] | aqueous solubility [µg/mL] | MDR1-MDCK efflux ratio | fraction unbound, human plasma | fraction unbound, rat plasma | Structure (SMILES)
153 | 1270 | 13.1 (≈ 32.6 µM) | 1.29 | – | – | c1ccc(OCc2cc(CC3(NCc4cnc5ccccc5c4)COC3)no2)cc1
– | – | 47.5 (≈ 160 µM) | 2.14 | – | – | Cc1cc2ccccc2n1CC(=O)N(C)Cc1cnn(C)c1
34.7 | 485 | – | – | – | – | COc1cc(-c2cnc(NC3CC3)nc2-c2cccs2)nc(OC)n1
523 | 296 | – | 0.826 | – | – | CCc1[nH]nc(NC2CCC(C(=O)OC)CC2)c1C (stereo not given)
928 | 4390 | 48.2 (≈ 127 µM) | 0.958 | – | – | Cc1c(Cl)cccc1NC(=O)C(C)N1CCCN(c2nccs2)CC1 (stereo not given)
4.86 | 34.6 | 1.15 (≈ 3.28 µM) | 13.6 | – | – | CCc1ccc(NC(=O)C2CCN(c3ccc4nncn4n3)CC2)cc1
≤ 4.74 | – | – | 5.01 | 0.621 | – | Cn1c(-c2n[nH]c3c2CCCC3)nnc1N1CCC2(CNC(=O)C2)C1 (stereo not given)
35.9 | 105 | 4.17 (≈ 13.3 µM) | 0.248 | – | – | CCc1nnc(NC(=O)c2ccc3cc(OC)ccc3n2)s1
22.2 | 155 | 4.85 (≈ 18.5 µM) | 0.471 | – | – | Cc1cccc(NC(=O)c2cccc3ncccc23)c1
– | – | 3.88 (≈ 10.2 µM) | – | – | – | Cc1ccnc(NC(=O)CN(C)c2ncnc3sc4c(c23)CCC(C)C4)c1 (stereo not given)
≤ 4.74 | ≤ 10.7 | 44.6 (≈ 167 µM) | 12.8 | – | – | CCc1nnc(NC(=O)Cc2c(C)noc2C)s1
≤ 4.74 | ≤ 10.7 | – | 0.4 | – | – | O=C(O)c1csc(Cc2ccc(Cl)cc2)n1
≤ 4.74 | 11.4 | – | 1.44 | – | – | Cc1cc(C(=O)Nc2nnc3n2CCCC3)n(C)n1
